For one series, the target named is T1, human H4 receptor (Homo sapiens, UniProt Q9H3N8).
T1 construct: expressed in transfected cells; host or cells: HEKf cells infected with baculovirus
The series is described as follows: H4 Antagonist Functional cAMP Gi Assay. It counts as cell-based. Particulars: HEKf cells expressing human H4 receptor; functional antagonist pKb by Cheng-Prusoff vs histamine; read-out: Human H4 cAMP fpKb (converted). The protocol: HEKf cells were infected overnight using baculovirus expressing the human H4 receptor, then centrifuged at 1,200 rpm for 5 min, frozen in cell freezing medium (Sigma) and stored at −150° C. On the day of assay, the cells were thawed and resuspended in HBSS with 500 nM IBMX to achieve a density of 1,500 cells/well. H4 ligands were prepared in DMSO and stamped by LabCyte ECHO acoustic dispensing at 25 nL in low volume plates. 10 μL/well cells were plated in the presence of 1 μM forskolin, subjected to centrifugation at 1,200 rpm for 1 min and incubated for 30 min prior to addition of Cisbio cAMP detection reagents to a total volume 20 μL/well. […] Following detection reagent addition and shaking at room temperature for 60 min, cAMP accumulation was measured using HTRF on a PheraStar plate reader. EC50 values were generated using a 4-parameter logistical fit equation to quantify agonist potencies. Functional antagonist affinity values were generated using the Cheng-Prusoff equation to calculate a pKb value using the antagonist assay data.

Another series deals with hERG (Homo sapiens, UniProt Q12809). The series is described as follows: hERG single-concentration assay (QPatch automated patch clamp, CHO cells, 30 μM). The settings on record: CHO cells stably expressing hERG. Type of series: cell-based. The source says: Series resistance (4-15 MΩ) was compensated by >80%.

We go through 25 compounds from patent US20240317775A1, “H4 Antagonist Compounds” (HEPTARES THERAPEUTICS LIMITED, priority 2020, published 2024).

What is called inhibition is how much of the control response was suppressed. The low end stands for little suppression, the high end for strong suppression.

T1 sequence (Q9H3N8 whole entry): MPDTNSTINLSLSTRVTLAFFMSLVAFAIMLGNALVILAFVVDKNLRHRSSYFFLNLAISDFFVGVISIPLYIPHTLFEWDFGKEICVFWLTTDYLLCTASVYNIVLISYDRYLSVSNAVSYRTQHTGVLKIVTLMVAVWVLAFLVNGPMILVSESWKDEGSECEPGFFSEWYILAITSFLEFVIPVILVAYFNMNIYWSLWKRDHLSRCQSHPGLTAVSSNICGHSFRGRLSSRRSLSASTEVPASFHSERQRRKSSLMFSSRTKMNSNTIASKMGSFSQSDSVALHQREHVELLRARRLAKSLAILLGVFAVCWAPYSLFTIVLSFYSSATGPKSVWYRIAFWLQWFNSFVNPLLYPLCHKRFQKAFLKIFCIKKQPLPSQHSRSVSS
Chain of hERG (Q12809 whole entry): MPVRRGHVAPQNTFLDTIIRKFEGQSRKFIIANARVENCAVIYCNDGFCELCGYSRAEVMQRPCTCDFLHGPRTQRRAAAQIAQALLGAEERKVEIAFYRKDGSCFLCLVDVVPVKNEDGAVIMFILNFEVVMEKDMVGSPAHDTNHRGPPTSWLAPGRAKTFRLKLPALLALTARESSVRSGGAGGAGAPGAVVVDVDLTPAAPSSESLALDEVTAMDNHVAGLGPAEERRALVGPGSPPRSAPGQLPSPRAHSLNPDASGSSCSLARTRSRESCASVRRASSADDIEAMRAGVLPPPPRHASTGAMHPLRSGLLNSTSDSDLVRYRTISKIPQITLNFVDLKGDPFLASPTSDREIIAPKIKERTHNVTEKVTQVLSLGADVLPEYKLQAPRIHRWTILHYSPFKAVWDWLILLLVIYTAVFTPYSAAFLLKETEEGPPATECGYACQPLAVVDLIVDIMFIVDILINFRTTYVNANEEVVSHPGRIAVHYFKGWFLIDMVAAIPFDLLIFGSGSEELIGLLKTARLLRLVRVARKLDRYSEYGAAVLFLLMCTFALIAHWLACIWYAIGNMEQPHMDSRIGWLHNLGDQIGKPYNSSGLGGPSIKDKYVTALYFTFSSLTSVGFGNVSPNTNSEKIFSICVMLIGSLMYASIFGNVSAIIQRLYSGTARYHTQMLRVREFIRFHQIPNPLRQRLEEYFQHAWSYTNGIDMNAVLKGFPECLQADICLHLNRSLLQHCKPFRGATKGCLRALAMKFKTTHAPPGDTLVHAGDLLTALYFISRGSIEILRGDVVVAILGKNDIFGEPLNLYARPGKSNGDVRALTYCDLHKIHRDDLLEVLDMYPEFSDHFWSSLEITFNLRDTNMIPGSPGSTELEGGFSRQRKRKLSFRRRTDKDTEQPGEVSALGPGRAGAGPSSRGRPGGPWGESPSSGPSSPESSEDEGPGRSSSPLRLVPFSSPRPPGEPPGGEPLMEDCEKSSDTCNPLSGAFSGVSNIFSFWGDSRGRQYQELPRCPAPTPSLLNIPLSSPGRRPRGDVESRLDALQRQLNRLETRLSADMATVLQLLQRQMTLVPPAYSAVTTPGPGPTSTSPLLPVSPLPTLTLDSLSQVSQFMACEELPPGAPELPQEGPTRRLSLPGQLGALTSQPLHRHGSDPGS

`CN[C@@H]1CCN(c2nc(N)nc3c2OC[C@H](C(C)C)N3)C1` [Example 1-5, (S)-7-Isopropyl-4-((R)-3-(methylamino)pyrrolidin-1-yl)-7,8-dihydro-6H-pyrimido[5,4-b][1,4]oxazin-2-amine]: the Kb on human H4 receptor is 25.1 nM. Also, the inhibition at 30 µM at hERG is 68%. In the case of `CN[C@@H]1CCN(c2cc(NCC3CC3)nc(N)n2)C1` [PF-3893787, reference compound], on hERG, the inhibition at 30 µM worked out at 67%. In the case of `CN[C@@H]1CCN(c2nc(N)nc3c2OC[C@@H](C(C)(C)OC)N3)C1` [Example 1-12, (S)-7-(2-Methoxypropan-2-yl)-4-((R)-3-(methylamino)pyrrolidin-1-yl)-7,8-dihydro-6H-pyrimido[5,4-b][1,4]oxazin-2-amine], on human H4 receptor, the Kb was 2 nM. On hERG, this compound had an inhibition at 30 µM of 8.3%. In the case of `CN[C@@H]1CCN(c2nc(N)nc3c2OC[C@@H](COC)N3)C1` [Example 1-9, (R)-7-(Methoxymethyl)-4-((R)-3-(methylamino)pyrrolidin-1-yl)-7,8-dihydro-6H-pyrimido[5,4-b][1,4]oxazin-2-amine], at human H4 receptor, the Kb is 10 nM. Moreover, at hERG, at 30 µM the inhibition was 12%. In the case of `CC(C)[C@@H]1COc2c(ncnc2N2CC[C@@H](N)C2)N1` [Example 8-1, (R)-1-((R)-7-Isopropyl-7,8-dihydro-6H-pyrimido[5,4-b][1,4]oxazin-4-yl)pyrrolidin-3-amine], the Kb at human H4 receptor is 5.01 nM. In addition, 30 µM produced 21% inhibition at hERG.

On to `CN[C@@H]1CCN(c2nc(N)nc3c2OCC(C)N3)C1` (stereo partly drawn) [Example 1-2, 7-Methyl-4-((R)-3-(methylamino)pyrrolidin-1-yl)-7,8-dihydro-6H-pyrimido[5,4-b][1,4]oxazin-2-amine], for which the Kb at human H4 receptor is 12.6 nM.

With `CN[C@@H]1CCN(c2ncnc3c2OC[C@@H](C2CC2)N3)C1` [Example 7-2, (R)-1-((R)-7-Cyclopropyl-7,8-dihydro-6H-pyrimido[5,4-b][1,4]oxazin-4-yl)-N-methylpyrrolidin-3-amine], the Kb on human H4 receptor is 3.16 nM. On the same count and under the same terms, the value for `CN[C@@H]1CCN(c2nc(N)nc3c2OC[C@]2(C)CCCN32)C1` [Example 1-23, (S)-6a-Methyl-4-((R)-3-(methylamino)pyrrolidin-1-yl)-6a,7,8,9-tetrahydro-6H-pyrimido[5,4-b]pyrrolo[1,2-d][1,4]oxazin-2-amine] was 39.8 nM. On the same count and under the same terms, the value for `CN[C@@H]1CCN(c2nc(N)nc3c2OCC(C)CN3)C1` (stereo partly drawn) [Example 11-7, 7-Methyl-4-((R)-3-(methylamino)pyrrolidin-1-yl)-6,7,8,9-tetrahydropyrimido[5,4-b][1,4]oxazepin-2-amine] was 251 nM. The same measure, in the same setting: the value for `CN[C@@H]1CCN(c2nc(N)nc3c2OCC[C@H](C(C)C)N3)C1` [Example 11-6, (R)-8-Isopropyl-4-((R)-3-(methylamino)pyrrolidin-1-yl)-6,7,8,9-tetrahydropyrimido[5,4-b][1,4]oxazepin-2-amine] was 12.6 nM; that for `CO[C@H](C)[C@@H]1COc2c(nc(N)nc2N2CC[C@@H](N)C2)N1` [Example 2-4, (S)-4-((R)-3-Aminopyrrolidin-1-yl)-7-((R)-1-methoxyethyl)-7,8-dihydro-6H-pyrimido[5,4-b][1,4]oxazin-2-amine] was 50.1 nM; that for `CN[C@@H]1CCN(c2nc(N)nc3c2OCC[C@@H]2CCCN32)C1` [Example 11-10, (S)-4-((R)-3-(Methylamino)pyrrolidin-1-yl)-6,7,7a,8,9,10-hexahydropyrimido[5,4-b]pyrrolo[1,2-d][1,4]oxazepin-2-amine] was 794 nM. For `CN[C@@H]1CCN(c2nc(N)nc3c2OCC(CC(C)C)N3)C1` (stereo partly drawn) [Example 1-7, 7-isobutyl-4-((R)-3-(methylamino)pyrrolidin-1-yl)-7,8-dihydro-6H-pyrimido[5,4-b][1,4]oxazin-2-amine], the Kb on human H4 receptor is 20 nM. Still for that read-out and setting: in the case of `CN[C@@H]1CCN(c2nc(N)nc3c2OC[C@@H]([C@H](C)OC)N3)C1` [Example 1-11, (S)-7-((S)-1-Methoxyethyl)-4-((R)-3-(methylamino)pyrrolidin-1-yl)-7,8-dihydro-6H-pyrimido[5,4-b][1,4]oxazin-2-amine] it was 15.8 nM. Regarding `CN[C@@H]1CCN(c2nc(N)nc3c2O[C@@H](C)[C@@H](C)N3)C1` [Example 1-16, (6S,7R)-6,7-Dimethyl-4-((R)-3-(methylamino)pyrrolidin-1-yl)-7,8-dihydro-6H-pyrimido[5,4-b][1,4]oxazin-2-amine], the Kb on human H4 receptor was 31.6 nM. On the same count and under the same terms, in the case of `CNC1CN(c2nc(N)nc3c2OC[C@@H](C(C)(C)OC)N3)C1` [Example 3-6, (S)-7-(2-Methoxypropan-2-yl)-4-(3-(methylamino)azetidin-1-yl)-7,8-dihydro-6H-pyrimido[5,4-b][1,4]oxazin-2-amine] it was 25.1 nM. `CN[C@@H]1CCN(c2nc(N)nc3c2OCC(C(C)C)N3C)C1` (stereo partly drawn) [Example 1-20, 7-Isopropyl-8-methyl-4-((R)-3-(methylamino)pyrrolidin-1-yl)-7,8-dihydro-6H-pyrimido[5,4-b][1,4]oxazin-2-amine]: on human H4 receptor, the Kb is 100 nM. Same read-out and setting: the value for `CC[C@@H]1COc2c(nc(N)nc2N2CC(NC)C2)N1` [Example 3-1, (R)-7-Ethyl-4-(3-(methylamino)azetidin-1-yl)-7,8-dihydro-6H-pyrimido[5,4-b][1,4]oxazin-2-amine] was 2 nM; that for `CN[C@@H]1CCN(c2nc(N)nc3c2OCCCN3)C1` [Example 11-1, (R)-4-(3-(Methylamino)pyrrolidin-1-yl)-6,7,8,9-tetrahydropyrimido[5,4-b][1,4]oxazepin-2-amine] was 200 nM; that for `CN[C@@H]1CCN(c2ncnc3c2OCC[C@H](C(C)C)N3)C1` [Example 14-2, (R)-1-((R)-8-Isopropyl-6,7,8,9-tetrahydropyrimido[5,4-b][1,4]oxazepin-4-yl)-N-methylpyrrolidin-3-amine] was 100 nM. For the compound `CNC1CN(c2nc(N)nc3c2OCC[C@H](C(C)C)N3)C1` [Example 13-2, (R)-8-Isopropyl-4-(3-(methylamino)azetidin-1-yl)-6,7,8,9-tetrahydropyrimido[5,4-b][1,4]oxazepin-2-amine], on human H4 receptor, the Kb was 15.8 nM. As to `CN[C@@H]1CCN(c2nc(N)nc3c2OCC(C2COC2)N3)C1` (stereo partly drawn) [Example 1-13, 4-((R)-3-(Methylamino)pyrrolidin-1-yl)-7-(oxetan-3-yl)-7,8-dihydro-6H-pyrimido[5,4-b][1,4]oxazin-2-amine], on human H4 receptor, the Kb is 31.6 nM. In the case of `CO[C@H](C)[C@@H]1COc2c(ncnc2N2CC[C@@H](N)C2)N1` [Example 8-2, (R)-1-((S)-7-((R)-1-Methoxyethyl)-7,8-dihydro-6H-pyrimido[5,4-b][1,4]oxazin-4-yl)pyrrolidin-3-amine], the Kb on human H4 receptor was 631 nM. Regarding `CO[C@@H](C)[C@@H]1COc2c(nc(N)nc2N2CC[C@@H](N)C2)N1` [Example 2-5, (S)-4-((R)-3-Aminopyrrolidin-1-yl)-7-((S)-1-methoxyethyl)-7,8-dihydro-6H-pyrimido[5,4-b][1,4]oxazin-2-amine], the Kb on human H4 receptor is 79.4 nM. For `CN[C@@H]1CCN(c2ncnc3c2OC[C@@H]([C@@H](C)OC)N3)C1` [Example 7-4, (R)-1-((S)-7-((R)-1-Methoxyethyl)-7,8-dihydro-6H-pyrimido[5,4-b][1,4]oxazin-4-yl)-N-methylpyrrolidin-3-amine], the Kb on human H4 receptor was 31.6 nM.
